How the values were obtained:
[1] = Hygroscopicity (open vial, change of weight); format: physicochemical
Excerpt: An open vial of Tetrofosmin x 2 HBF4 was stored at room temperature, normal atmosphere and 50% humidity.

[2] = Storage stability of Tetrofosmin x 2 HBF4 (1H and 31P NMR spectra); format: physicochemical
Protocol: Tetrofosmin x 2 HBF4 was stored at room temperature without protective gas (e. g. argon or nitrogen). In accordance to example 1, the ^1H and ^31P spectra were unchanged after 12 months.
Moreover, Tetrofosmin x 2 HBF4 was heated in a normal atmosphere (with oxygen) at 50° C. for 6 hours.

| Compound | change of weight (hygroscopicity) ([1]; open vial, room temperature, normal atmosphere, 50% humidity, after 72 h) | 1H and 31P spectra after heating ([2]; normal atmosphere (with oxygen), 50° C. for 6 hours) | 1H and 31P spectra after storage ([2]; room temperature, without protective gas, after 12 months) | physical nature / hygroscopicity ([1]; own experiments of the inventors) |
| --- | --- | --- | --- | --- |
| Tetrofosmin x 2 HBF4 | no change of weight | no sign of degradation | unchanged | – |
| CCOCCP(CCOCC)CCP(CCOCC)CCOCC.Cl [Tetrofosmin hydrochloride, reference compound] | – | – | – | oily and hygrospcopic |

Source: US9963473B2, “Stabilized form of tetrofosmin and its use” (priority 2014, dated 2018)
